{"source": "patent US20190358242A1", "about": "“COMPOSITIONS, KITS, AND METHODS TO INDUCE ACQUIRED CYTORESISTANCE USING STRESS PROTEIN INDUCERS” (FRED HUTCHINSON CANCER RESEARCH CENTER, priority 2017, published 2019)", "system": "HO-1 protein", "assay": "Renal cortical HO-1 protein (ELISA) after FeS, SnPP, B12", "format": "in vivo, CD-1 mice", "settings": "4 hrs and 18 hrs after IV injection", "protocol": "Effects of FeS, SnPP, and B12 on renal cortical induction of heme oxygenase 1(HO-1). The following experiments assessed the effects of FeS, SnPP, and B12 on the possible induction of the cytoprotective protein HO-1. To this end, mice were injected with each of these agents, as noted above. Either 4 or 18 hrs later, they were anesthetized and the kidneys were removed through a midline abdominal incision. The renal cortices were dissected on ice and then extracted for protein and mRNA. The samples were then assayed for HO-1 protein by ELISA, and HO-1 mRNA by RT-PCR, factored by GAPDH levels. Five normal mice provided control values.", "data": [{"substance": "cyanocobalamin [B12]", "values": [{"measurement": "HO-1 protein increases (FIG. 21)", "value": "marked HO-1 protein increases within 4 hrs and persists for 18 hrs"}]}]}
